From PMC7795425, “Synthesis and Biological Activity of Brassinosteroid Analogues with a Nitrogen-Containing Side Chain” (International Journal of Molecular Sciences, 2020)
Entries after “also recorded” stand apart in the source; their conditions may differ. Counter-ions that a name gives are not always drawn.

Key:
[1] = Calcein AM cytotoxicity assay, CEM; format: cell-based; settings: human, CEM T-lymphoblastic leukemia cells, IC50 > 50 µM means inactive, read-out: Cytotoxic activity IC50
Description: (§1) The effect of the prepared BRs derivatives on the viability (in Calcein AM assays) of BJ human fibroblasts (as an example of a “normal” cell line) and human cancer cell lines of various histopathological origins, including: T-lymphoblastic leukemia CEM, breast carcinoma MCF7 and cervical carcinoma cell line HeLa, was also studied. Cells of all these lines were exposed to six 3-fold dilutions of each drug for 72 h prior to determination of cell survival. The IC50 (concentration leading to 50% inhibition of viability) values obtained from the Calcein AM cytotoxicity assay were calculated. […] All tested BR nitrogen-containing derivatives had no detectable activity, even when tested in concentrations of up to 50 µM.
(§2) The screening cell lines: T-lymphoblastic leukemia CEM; breast carcinoma MCF7 (estrogen-sensitive); cervical carcinoma cell line HeLa; and human foreskin fibroblasts BJ, were obtained from the American Type Culture Collection (Manassas, VA, USA). Cells were cultured in DMEM (Dulbecco’s Modified Eagle Medium, Sigma, St. Louis, MO, USA). Media used were supplemented with 10% fetal bovine serum, 2mM L-glutamine and 1% penicillin–streptomycin. The cell lines were maintained under standard cell culture conditions at 37 °C and 5% CO2 in a humid environment.
(§3) Cells were subcultured twice or three times a week using the standard trypsinization procedure. Cytotoxicity in cancer cell lines after 72 h was determined as described earlier. Control cultures were treated with DMSO alone, and the final concentration of DMSO in the mixture never exceeded 0.6%. Six serial 3-fold dilutions of the test substances were added at time zero in 20 μL aliquots to the microtiter plate wells and the highest final concentration in the wells was 50 μM.
(§4) Table S3: Cytotoxic activities, IC50 (µM/L)a, of compounds in three tumor and one normal fibroblast
(§5) Compound CEM MCF7 HeLa BJ
(§6) a The lowest concentration that kills 50% of cells.
(§7) b Increase of cell proliferation.

[2] = Calcein AM cytotoxicity assay, HeLa; format: cell-based; settings: human, HeLa cervical carcinoma cells, IC50 > 50 µM means inactive, read-out: Cytotoxic activity IC50
Description: as §1, §2, §3, §4, §5, §6, §7

[3] = Calcein AM cytotoxicity assay, MCF7; format: cell-based; settings: human, MCF7 breast carcinoma cells (estrogen-sensitive), MCF7, 72 h, IC50 > 50 µM means inactive, read-out: Cytotoxic activity IC50
Description: as §1, §2, §3, §4, §5, §6, §7

[4] = Calcein AM cytotoxicity assay, BJ; format: cell-based; settings: human, BJ foreskin fibroblasts (normal cell line), IC50 > 50 µM means inactive, read-out: Cytotoxic activity IC50
Description: as §1, §2, §3, §4, §5, §6, §7

[5] = tested on: Arabidopsis thaliana L. (Columbia ecotype, Col-0) seedlings; assay: Arabidopsis root sensitivity bioassay; format: in vivo; settings: for root length, mean: 7-day-old seedlings; for elongation of roots (growth-promoting activity) compared to the control: low concentrations (0.1 and 1 nM)
Description: Several bioassays such as the first bean internode, root growth and rice lamina inclination have been developed to evaluate the growth-promoting activity of BR derivatives. In this work, the activity of new BR analogues was evaluated using the Arabidopsis root sensitivity test because of its simplicity and high sensitivity for BRs.. The characteristic effect of exogenously applied BRs on light-grown Arabidopsis is dose-dependent—BRs in higher concentrations cause inhibition of root growth; vice versa, low concentrations are stimulating. The results obtained for 24-epiBL, which was used as a positive control, and the BR derivatives are shown in Figure 2, Figure 3 and Figure S21. […] A similar trend was shown for dimethylammonium hydrochloride 22a and morpholinium hydrochloride 22e with a long side chain. For numerical values of the average, SD and p-value, see Table S2.
The biological activity of the new BRs derivatives was tested by an Arabidopsis sensitivity bioassay which was performed according to [28]. Briefly, seedlings of Arabidopsis thaliana L. (Columbia ecotype, Col-0) were stratified for 2 days at 4 °C and germinated on vertical half-strength Murashige and Skoog (1% w/v sucrose) agar at 22 °C in a 16 h/8 h light–dark cycle. The plates contained concentrations of 24-epiBL (as positive control) and BR derivatives ranging from 0.1 to 10 nM, respectively 100 nM (for selected derivatives only). After 7 days, roots were straightened on solid media plates and scanned with an Epson high-resolution scanner. The entire root length was measured with ImageJ (http://rsbweb.nih.gov/ij/). For each treatment, more than 15 seedlings were analyzed in two biological repeats, and p-values were calculated with the two-tailed Student t-test using Excel software.
(§8) Figure 2 Effect of selected brassinosteroid derivatives on the inhibition of Arabidopsis root length. Seven-day-old Arabidopsis thaliana seedlings (Columbia ecotype, Col-0) were treated with DMSO as control/24epiBL/BR short side chain derivatives; (A)—amides, (B)—amines, (C)—ammonium hydrochlorides. For each treatment, more than 15 seedlings were analyzed in two biological repeats. Error bars represent SD. Asterisks represent significant changes (t-test); * represents p-value < 0.05, in comparison to control.
as §8, with “Figure 3” for “Figure 2”, “control/24epiBL/BR long” for “control/24epiBL/BR short”, “(A)—amides, (B)—ammonium” for “(A)—amides, (B)—amines, (C)—ammonium”
Table S2: Data for figure 2, 3, and S21. P value <0.05(t-test), comparison to control.
control (mean ± SD) 16.3 ± 1.21
*only selected compounds were tested
mean(mm) SD t-test mean (mm) SD t-test mean (mm) SD t-test mean (mm) SD t-test
(1 picture or pasted object on this page, not shown here)

[6] = 100 nM (only selected compounds), control 14.61 ± 0.85

Row | Compound | IC50 at 72 h [1] | IC50 at 72 h [2] | IC50 at 72 h [3] | IC50 at 72 h [4] | root length, mean ([5]; 0.1 nM, control 16.3 ± 1.21) | root length, mean ([5]; 1 nM, control 16.3 ± 1.21) | root length, mean ([5]; 10 nM, control 16.3 ± 1.21) | melting point | root length, mean [5, 6] | elongation of roots (growth-promoting activity) compared to the control [5] | concentration inhibiting Arabidopsis root growth ([5]; light-grown seedlings, positive control)
1 | C[C@H](CN1CCCCC1)[C@H]1CC[C@H]2[C@@H]3CC(=O)[C@H]4C[C@H](O)[C@H](O)C[C@]4(C)[C@H]3CC[C@]12C [15d, (20S)-20-(piperidin-1-ylmethyl)-2α,3α-dihydroxy-5α-pregnane-6-one] | > 50 µM | > 50 µM | > 50 µM | > 50 µM | 14.18 mm | 14.11 mm | 15.15 mm | > 210 °C (dec.) |  |  | 
2 | C[C@H](CN1CCOCC1)[C@H]1CCC2C3CC(=O)[C@H]4C[C@H](O)[C@H](O)C[C@]4(C)C3CC[C@@]21C (stereo partly drawn) (as salt: chloride) [16e, 4-((20S)-2α,3α-dihydroxy-6-oxo-5α-pregnane-20-methyl)morpholin-4-ium chloride] |  |  |  |  |  |  |  | > 240 °C (dec.) |  |  | 
3 | C[C@H](C(=O)N1CCCC1)[C@H]1CC[C@H]2[C@@H]3CC(=O)[C@H]4C[C@H](O)[C@H](O)C[C@]4(C)[C@H]3CC[C@]12C [8c, 1-((20S)-2α,3α-dihydroxy-6-oxo-5α-pregnane-20-carbonyl)pyrrolidine] | > 50 µM | > 50 µM | > 50 µM | > 50 µM | 17.61 mm | 18.58 mm | 15.97 mm | > 180 °C (dec.) |  |  | 
4 | CCN(CC)C(=O)[C@@H](C)[C@H]1CC[C@H]2[C@@H]3CC(=O)[C@H]4C[C@H](O)[C@H](O)C[C@]4(C)[C@H]3CC[C@]12C [8b, N,N-diethyl-(20S)-2α,3α-dihydroxy-6-oxo-5α-pregnane-20-carboxamide] | > 50 µM | > 50 µM | > 50 µM | > 50 µM | 18.41 mm | 15.15 mm | 16.95 mm | > 200 °C (dec.) | 13.836 mm | slight elongation of roots; also recorded: interesting growth-promoting activity | 
5 | C[C@H](CN1CCCCC1)[C@H]1CCC2C3CC(=O)[C@H]4C[C@H](O)[C@H](O)C[C@]4(C)C3CC[C@@]21C (stereo partly drawn) [16d, 1-((20S)-2α,3α-dihydroxy-6-oxo-5α-pregnane-20-methyl)piperidin-1-ium chloride] | > 50 µM | > 50 µM | > 50 µM | > 50 µM | 15.32 mm | 15.65 mm | 17.61 mm |  |  |  | 
6 | C[C@H](CN(C)C)[C@H]1CCC2C3CC(=O)[C@H]4C[C@H](O)[C@H](O)C[C@]4(C)C3CC[C@@]21C (stereo partly drawn) [16a, N,N-dimethyl-((20S)-2α,3α-dihydroxy-6-oxo-5α-pregnane-20-methyl)aminium chloride] | > 50 µM | > 50 µM | > 50 µM | > 50 µM | 18.91 mm | 15.64 mm | 15.32 mm |  | 13.626 mm |  | 
7 | C[C@H](CN1CCCC1)[C@H]1CCC2C3CC(=O)[C@H]4C[C@H](O)[C@H](O)C[C@]4(C)C3CC[C@@]21C (stereo partly drawn) [16c, 1-((20S)-2α,3α-dihydroxy-6-oxo-5α-pregnane-20-methyl)pyrrolidin-1-ium chloride] | > 50 µM | > 50 µM | > 50 µM | > 50 µM | 15.97 mm | 14.99 mm | 15.16 mm |  |  |  | 
8 | C[C@H](CN1CCCCC1)[C@H]1CCC2C3CC(=O)[C@H]4C[C@H](O)[C@H](O)C[C@]4(C)C3CC[C@@]21C (stereo partly drawn) (as salt: chloride) [16d, 1-((20S)-2α,3α-dihydroxy-6-oxo-5α-pregnane-20-methyl)piperidin-1-ium chloride] |  |  |  |  |  |  |  | > 280 °C (dec.) |  |  | 
9 | C[C@H](CN1CCCC1)[C@H]1CCC2C3CC(=O)[C@H]4C[C@H](O)[C@H](O)C[C@]4(C)C3CC[C@@]21C (stereo partly drawn) (as salt: chloride) [16c, 1-((20S)-2α,3α-dihydroxy-6-oxo-5α-pregnane-20-methyl)pyrrolidin-1-ium chloride] |  |  |  |  |  |  |  | > 260 °C (dec.) |  |  | 
10 | C[C@H](CN1CCOCC1)[C@H]1CCC2C3CC(=O)[C@H]4C[C@H](O)[C@H](O)C[C@]4(C)C3CC[C@@]21C (stereo partly drawn) [16e, 4-((20S)-2α,3α-dihydroxy-6-oxo-5α-pregnane-20-methyl)morpholin-4-ium chloride] | > 50 µM | > 50 µM | > 50 µM | > 50 µM | 17.21 mm | 17.61 mm | 16.13 mm |  | 13.771 mm | slight elongation of roots; also recorded: interesting growth-promoting activity | 
11 | CC(C)[C@@H](C)[C@@H](O)[C@H](O)[C@@H](C)[C@H]1CC[C@H]2[C@@H]3COC(=O)[C@H]4C[C@H](O)[C@H](O)C[C@]4(C)[C@H]3CC[C@]12C [24-epiBL, 24-epibrassinolide, reference compound] |  |  |  |  | 15.811 mm | 13.855 mm | 7.342 mm |  | 6.685 mm |  | ≥ 1 nM
12 | CCN(CC)C[C@@H](C)[C@H]1CCC2C3CC(=O)[C@H]4C[C@H](O)[C@H](O)C[C@]4(C)C3CC[C@@]21C (stereo partly drawn) [16b, N,N-diethyl-((20S)-2α,3α-dihydroxy-6-oxo-5α-pregnane-20-methyl)aminium chloride] | > 50 µM | > 50 µM | > 50 µM | > 50 µM | 17.27 mm | 17.61 mm | 16.13 mm |  |  |  | 
13 | C[C@H](CN(C)C)[C@H]1CCC2C3CC(=O)[C@H]4C[C@H](O)[C@H](O)C[C@]4(C)C3CC[C@@]21C (stereo partly drawn) (as salt: chloride) [16a, N,N-dimethyl-((20S)-2α,3α-dihydroxy-6-oxo-5α-pregnane-20-methyl)aminium chloride] |  |  |  |  |  |  |  | > 290 °C (dec.) |  |  | 
14 | CCN(CC)C[C@@H](C)[C@H]1CCC2C3CC(=O)[C@H]4C[C@H](O)[C@H](O)C[C@]4(C)C3CC[C@@]21C (stereo partly drawn) (as salt: chloride) [16b, N,N-diethyl-((20S)-2α,3α-dihydroxy-6-oxo-5α-pregnane-20-methyl)aminium chloride] |  |  |  |  |  |  |  | > 270 °C (dec.) |  |  | 
